Source: US8853258B2, “C-linked hydroxamic acid derivatives useful as antibacterial agents” (Pfizer Inc., priority 2009, dated 2014)
Read-outs that look alike come from different tables or passages of the source.

How the values were obtained:
Format in all cases: cell-based
[1] = tested on: Acinetobacter baumanii/haemolyticus: Multidrug-resistant clinical isolate (AB-3167); assay: MIC determination (CLSI), AB-3167
Procedure: (§1) The in vitro antibacterial activity of compounds described in the Examples was evaluated by minimum inhibitory concentration (MIC) testing according to Clinical and Laboratory Standards Institute (CLSI, formerly NCCLS) guidelines. See: Clinical and Laboratory Standards Institute. Methods for Dilution Antimicrobial Susceptibility Tests for Bacteria that Grow Aerobically; Approved Standard-Seventh Edition. CLSI document M7-A7 [ISBN 1-56238-587-9]. Clinical and Laboratory Standards Institute, 940 West Valley Road, Suite 1400, Wayne, Pa. 19087-1898 USA, 2006; also Clinical and Laboratory Standards Institute. Performance Standards for Antimicrobial Susceptibility Testing; Eighteenth Informational Supplement. CLSI document M100-S18 [ISBN1-56238-653-0]. Clinical and Laboratory Standards Institute.
(§2) The following bacterial strains were used in these MIC determinations:
2) Acinetobacter baumanii/haemolyticus: Multidrug-resistant clinical isolate labeled as AB-3167 in Tables 1, 2 and 3;

[2] = tested on: Pseudomonas aeruginosa UI-18: Wild-type (PA-7); assay: MIC determination (CLSI), PA-7
Procedure: as §1, §2
1) Pseudomonas aeruginosa UI-18: Wild-type, labeled as PA-7 in Tables 1, 2 and 3;

[3] = tested on: Klebsiella pneumoniae: Ciprofloxacin-resistant isolate, ESBL, clinical isolate (KP-3700); assay: MIC determination (CLSI), KP-3700
Procedure: as §1, §2
4) Klebsiella pneumoniae: Ciprofloxacin-resistant isolate, expresses extended-spectrum beta-lactamases (ESBL), clinical isolate, labeled as KP-3700 in Tables 1, 2, and 3.

[4] = tested on: Escherichia coli EC-1: VOGEL, mouse virulent; assay: MIC determination (CLSI), EC-1
Procedure: as §1, §2
3) Escherichia coli EC-1: VOGEL, mouse virulent labeled as EC-1 in Tables 1, 2 and 3;

[5] = Acinetobacter baumanii/haemolyticus multidrug-resistant clinical isolate AB-3167
[6] = Pseudomonas aeruginosa UI-18 wild-type PA-7
[7] = Escherichia coli EC-1 VOGEL, mouse virulent
[8] = Acinetobacter baumanii/haemolyticus AB-3167
[9] = Pseudomonas aeruginosa UI-18 (PA-7)

SMILES | AB-3167 MIC [1, 5] | PA-7 MIC [2, 6] [mg/L] | KP-3700 MIC [3] | EC-1 MIC [4, 7] | KP-3700 MIC ([3]; Klebsiella pneumoniae ciprofloxacin-resistant ESBL clinical isolate KP-3700) [mg/L] | AB-3167 MIC [1, 8] | PA-7 MIC [2, 9] [mg/L] | EC-1 MIC ([4]; Escherichia coli EC-1)
CC(CCc1ccc(-c2ccc(OCCN)cc2)cc1)(C(=O)NO)S(C)(=O)=O (stereo not drawn) [Example 116] | ≧64 mg/L | 4 | ≧64 mg/L | ≧64 mg/L | – | – | – | –
CC(CCc1ccc(-c2ccc(OCCCN)cc2)cc1)(C(=O)NO)S(C)(=O)=O (stereo not drawn) [Example 117] | ≧64 mg/L | 8 | ≧64 mg/L | ≧64 mg/L | – | – | – | –
CC(CCc1ccc(-c2ccc(OCCCCN)cc2)cc1)(C(=O)NO)S(C)(=O)=O (stereo not drawn) [Example 118] | ≧64 mg/L | 16 | ≧64 mg/L | 32 mg/L | – | – | – | –
CC(CCc1ccc(-c2ccc(F)cc2)nc1)(C(=O)NO)S(C)(=O)=O (stereo not drawn) [Example 119] | ≧64 mg/L | 8 | ≧64 mg/L | 16 mg/L | – | – | – | –
COc1ccc(-c2ccc(CCC(C)(C(=O)NO)S(C)(=O)=O)cn2)cc1 (stereo not drawn) [Example 120] | ≧64 mg/L | 8 | 16 mg/L | 4 mg/L | – | – | – | –
CSc1ccc(-c2ccc(CCC(C)(C(=O)NO)S(C)(=O)=O)cn2)cc1 (stereo not drawn) [Example 121] | ≧64 mg/L | 4 | 4 mg/L | 1 mg/L | – | – | – | –
CC(CCc1ccc(-c2ccc(C#N)cc2)nc1)(C(=O)NO)S(C)(=O)=O (stereo not drawn) [Example 122] | ≧64 mg/L | 8 | ≧64 mg/L | 16 mg/L | – | – | – | –
CC(CCc1ccc(-c2cc(C(F)(F)F)c(C#N)cn2)cc1)(C(=O)NO)S(C)(=O)=O (stereo not drawn) [Example 124] | ≧64 mg/L | 8 | ≧64 mg/L | 8 mg/L | – | – | – | –
CC(CCc1ccc(-c2ccc(C#N)c(C#N)c2)cc1)(C(=O)NO)S(C)(=O)=O (stereo not drawn) [Example 125] | ≧64 mg/L | 4 | 32 mg/L | 8 mg/L | – | – | – | –
CC(CCc1ccc(-c2ccc(C#N)cn2)cc1)(C(=O)NO)S(C)(=O)=O (stereo not drawn) [Example 129] | ≧64 mg/L | 4 | ≧64 mg/L | 16 mg/L | – | – | – | –
CC(CCc1ccc(-c2cnc(C#N)cn2)cc1)(C(=O)NO)S(C)(=O)=O (stereo not drawn) [Example 130] | ≧64 mg/L | 16 | ≧64 mg/L | 16 mg/L | – | – | – | –
Cc1nc(-c2ccc(CCC(C)(C(=O)NO)S(C)(=O)=O)cc2)ccc1C#N (stereo not drawn) [Example 131] | ≧64 mg/L | 4 | 16 mg/L | 4 mg/L | – | – | – | –
COc1cccc(-c2ccc(CCC(C)(C(=O)NO)S(C)(=O)=O)cn2)c1F (stereo not drawn) [Example 134] | ≧64 mg/L | 4 | 16 mg/L | 4 mg/L | – | – | – | –
COc1ccc(CCC(C)(C(=O)NO)S(C)(=O)=O)cc1 (stereo not drawn) [Example 135] | ≧64 mg/L | 32 | ≧64 mg/L | ≧64 mg/L | – | – | – | –
Cc1cc(-c2ccc(CCC(C)(C(=O)NO)S(C)(=O)=O)cc2)ccc1O (stereo not drawn) [Example 137] | ≧64 mg/L | 4 | 32 mg/L | 16 mg/L | – | – | – | –
COc1cc(-c2ccc(CCC(C)(C(=O)NO)S(C)(=O)=O)cc2)ccc1O (stereo not drawn) [Example 139] | ≧64 mg/L | 16 | ≧64 mg/L | 16 mg/L | – | – | – | –
Cc1cc(O)ccc1-c1ccc(CCC(C)(C(=O)NO)S(C)(=O)=O)cc1 (stereo not drawn) [Example 140] | ≧64 mg/L | 4 | ≧64 mg/L | 32 mg/L | – | – | – | –
COc1cc(O)ccc1-c1ccc(CCC(C)(C(=O)NO)S(C)(=O)=O)cc1 (stereo not drawn) [Example 141] | ≧64 mg/L | 32 | ≧64 mg/L | ≧64 mg/L | – | – | – | –
CC(CCc1ccc(-c2ccc(C#N)c(O)c2)cc1)(C(=O)NO)S(C)(=O)=O (stereo not drawn) [Example 142] | ≧64 mg/L | 32 | ≧64 mg/L | ≧64 mg/L | – | – | – | –
CC(CCc1ccc(-c2ccccc2O)nc1)(C(=O)NO)S(C)(=O)=O (stereo not drawn) [Example 143] | ≧64 mg/L | 4 | 32 mg/L | 4 mg/L | – | – | – | –

SMILES | AB-3167 MIC [1, 5] | PA-7 MIC [2, 6] [mg/L] | KP-3700 MIC [3] | EC-1 MIC [4, 7] | KP-3700 MIC ([3]; Klebsiella pneumoniae ciprofloxacin-resistant ESBL clinical isolate KP-3700) [mg/L] | AB-3167 MIC [1, 8] | PA-7 MIC [2, 9] [mg/L] | EC-1 MIC ([4]; Escherichia coli EC-1)
CC(CCc1ccc(-c2ccc(OCCO)cc2F)cc1)(C(=O)NO)S(C)(=O)=O (stereo not drawn) [Example 144] | ≧64 mg/L | 1 | 4 mg/L | 1 mg/L | – | – | – | –
CC(CCc1ccc(-c2ccc(OCCO)c(F)c2)cc1)(C(=O)NO)S(C)(=O)=O (stereo not drawn) [Example 145] | ≧64 mg/L | 1 | 4 mg/L | 2 mg/L | – | – | – | –
CC(C)(O)Cc1ccc(-c2ccc(CCC(C)(C(=O)NO)S(C)(=O)=O)cc2)cc1 (stereo not drawn) [Example 146] | ≧64 mg/L | 8 | 32 mg/L | 8 mg/L | – | – | – | –
CC(CCc1ccc(-c2ccc(OCCO)c(F)c2F)cc1)(C(=O)NO)S(C)(=O)=O (stereo not drawn) [Example 147] | 32 mg/L | 1 | 8 mg/L | 2 mg/L | – | – | – | –
CC(CCc1ccc(-c2ccc(OCCO)c(C#N)c2)cc1)(C(=O)NO)S(C)(=O)=O (stereo not drawn) [Example 148] | ≧64 mg/L | 16 | ≧64 mg/L | 16 mg/L | – | – | – | –
CC(CCc1ccc(-c2ccc(O)cc2F)cc1)(C(=O)NO)S(C)(=O)=O (stereo not drawn) [Example 149] | ≧64 mg/L | 1 | 8 mg/L | 2 mg/L | – | – | – | –
CC(CCc1ccc(-c2cc(F)c(OCCO)c(F)c2)cc1)(C(=O)NO)S(C)(=O)=O (stereo not drawn) [Example 150] | 32 mg/L | 2 | 8 mg/L | 2 mg/L | – | – | – | –
Cc1cc(OCCO)ccc1-c1ccc(CCC(C)(C(=O)NO)S(C)(=O)=O)cc1 (stereo not drawn) [Example 151] | ≧64 mg/L | 4 | 32 mg/L | 8 mg/L | – | – | – | –
Cc1cc(-c2ccc(CCC(C)(C(=O)NO)S(C)(=O)=O)cc2)ccc1CCO (stereo not drawn) [Example 152] | ≧64 mg/L | 2 | 16 mg/L | 4 mg/L | – | – | – | –
CC(C)(O)c1ccccc1-c1ccc(CCC(C)(C(=O)NO)S(C)(=O)=O)cc1 (stereo not drawn) [Example 153] | ≧64 mg/L | 32 | ≧64 mg/L | ≧64 mg/L | – | – | – | –
CC(CCc1ccc(-c2cccc(O)c2F)cc1)(C(=O)NO)S(C)(=O)=O (stereo not drawn) [Example 154] | ≧64 mg/L | 1 | – | 4 mg/L | 8 | – | – | –
CC(CCc1ccc(-c2ccc(CCO)cc2F)cc1)(C(=O)NO)S(C)(=O)=O (stereo not drawn) [Example 155] | ≧64 mg/L | 1 | 8 mg/L | 2 mg/L | – | – | – | –
Cc1cc(CCO)ccc1-c1ccc(CCC(C)(C(=O)NO)S(C)(=O)=O)cc1 (stereo not drawn) [Example 156] | 16 mg/L | 8 | 8 mg/L | 16 mg/L | – | – | – | –
CC(CCc1ccc(-c2ccc(C#N)cc2)cn1)(C(=O)NO)S(C)(=O)=O (stereo not drawn) [Example 163] | ≧64 mg/L | 8 | 32 mg/L | 32 mg/L | – | – | – | –
CC(CCc1ccc(-c2ccc(F)cc2)cn1)(C(=O)NO)S(C)(=O)=O (stereo not drawn) [Example 164] | ≧64 mg/L | 4 | 32 mg/L | 32 mg/L | – | – | – | –
C[C@@](CCc1ccc(-c2cc3ccccc3o2)cc1)(C(=O)NO)S(C)(=O)=O [Example 214] | – | – | 4 mg/L | – | – | 8 mg/L | 8 | 0.125 mg/L
CC(C)(O)c1ccc(-c2ccc(CCC(C)(C(=O)NO)S(C)(=O)=O)cc2)cc1 (stereo not drawn) [Example 230] | – | – | 32 mg/L | – | – | ≧64 mg/L | 8 | 8 mg/L
CC(CCc1ccc(-c2ccc(C[C@H](N)C(=O)O)cc2)cc1)(C(=O)NO)S(C)(=O)=O (stereo partly drawn) [Example 231] | – | – | ≧64 mg/L | – | – | ≧64 mg/L | 16 | 32 mg/L
CC(CCc1ccc(-c2ccc(C[C@@H](N)C(=O)O)cc2)cc1)(C(=O)NO)S(C)(=O)=O (stereo partly drawn) [Example 232] | – | – | ≧64 mg/L | – | – | ≧64 mg/L | 32 | ≧64 mg/L
